We go through two substances from publication PMC8079784, “The Mechanism of Action of Antigen Processing Independent T Cell Epitopes Designed for Immunotherapy of Autoimmune Diseases” (Frontiers in Immunology, 2021).

The subject of data set [1] is autoimmune hemolytic anemia. The settings on record: cited from earlier work. From the text: Previously we have shown that the impact of CD4 T cell epitope administration in the absence of adjuvant depends on peptide solubility. […] Importantly, however, addition of charged residues at the N- and C-termini of the band 3 epitope rendered it both soluble and immuno-modulatory. Unlike the insoluble 861-874 that both primed band 3 reactive inflammatory T cells and promoted generation of pathogenic ...

Data set [2] deals with lymph node cells or splenocytes. Nature of the data set: T cell anergy: ex vivo proliferation of lymph node cells or splenocytes after dose escalation. The class given is in vivo, mouse (Tg4). The note with it: Tg4 mice, six escalating SC doses, cells three days after sixth dose, 3H-TdR at 72 hours. The protocol:
(§1) Tg4 mice were primed with a single dose (80μg) of 4Y in PBS by SC injection. Tolerance induction involved escalating dose immunotherapy (EDI) whereby each Tg4 or tiger-Tg4 mouse was treated with 0.08, 0.8, 8, 80, 80 and 80μg 4Y in PBS by SC injection at the right-side flank every 3rd or 4th day ([20]).
Proliferation was assessed by tritiated thymidine (^3H-TdR) incorporation with either whole splenocytes or isolated APC populations and antigen-specific Tg4 responder CD4^+ T cells. Tg4 whole splenocytes were cultured in 96-well round bottom plates, 2x10^5 whole splenocytes per well, with addition of the indicated concentration of the relevant peptide. Whole splenocytes from B10.PL mice that had received CD4^+ CD45.1^+ T cells followed by CD11c^+ cells were cultured in 48–well plates at 1.25x10^6 per well. […] Levels of incorporated radioactivity were assessed from the dried filter papers, sealed in sample bags (Wallac, Milton Keynes, UK) with 3ml scintillation fluid, ^3H-TdR incorporation was measured on a 1450 MicroBeta liquid scintillation counter (Wallac).
Figure 2 Peptide solubility predicts accessibility to steady state DC and determines tolerance induction: The 4Y peptide was rendered increasingly insoluble by addition of LF motifs. […] Proliferation was measured by tritiated thymidine (^3H-TdR) incorporation at 72 hours. […]

For data set [3], the system named is serum IL-10. In words: Serum IL-10 during dose escalation of SC peptide. The class given is in vivo, mouse (Tg4). The note with it: Tg4 mice, SC dose escalation 0.08 to 80µg every 3rd or 4th day. The protocol: as §1
(§2) MFBI Th1/Th2 Flow Cytomix Multiplex kits (eBioscience) were used to measure the concentration of cytokines in the serum 2 h after s.c. treatment with soluble peptide.
(§3) Figure 3 Impact of soluble versus insoluble peptide treatment on T cell function in Tg4 mice. A single SC dose of soluble 4Y (80µg) induces rapid and high levels of IL-2 into the serum of Tg4 mice (A) when compared to insoluble 4Y-3LF (B). For the data shown in (C), Tg4 mice received a SC injection of 80µg MBP Ac1-9[4Y] or 4Y-3LF. Blood was removed from the tail vein at the specified times following injection, baseline was taken prior to peptide injection and the cellular fraction was stained for flow cytometry. Inguinal lymph node (ILN), brachial lymph node (BLN) and spleen were collected at 48–hours. Percentages of CD4^+ cells were gated on live singlets. […] (*p ≤ 0.05, **p ≤ 0.01, ***p ≤ 0.001, ****p ≤ 0.0001). […] Tg4 mice were given SC injections of PBS containing the indicated doses of 4Y peptide given every 3rd or 4th day (2 doses per week).

For data set [4], the system named is Tg4 splenocytes. In words: In vitro antigenicity: proliferation of Tg4 splenocytes (3H-TdR). The class given is cell-based, mouse. The note with it: 2x10^5 per well, 3H-TdR at d3; limiting dose 1 ng/ml. The protocol: Proliferation was assessed by tritiated thymidine (^3H-TdR) incorporation with either whole splenocytes or isolated APC populations and antigen-specific Tg4 responder CD4^+ T cells. Tg4 whole splenocytes were cultured in 96-well round bottom plates, 2x10^5 whole splenocytes per well, with addition of the indicated concentration of the relevant peptide. Whole splenocytes from B10.PL mice that had received CD4^+ CD45.1^+ T cells followed by CD11c^+ cells were cultured in 48–well plates at 1.25x10^6 per well. Isolated populations were plated out at 5x10^4/well CD4^+ T cells, with either equal numbers of CD11c^+ DC, B cells or monocytes enriched as specified. Cells were cultured at 37°C, 5% CO2. At 24 and 72 hours, supernatant was taken for cytokine analysis and medium was supplemented with 0.5µCi ^3H-TdR (GE Healthcare Lifesciences, UK) for 16 hours. Plates were frozen at –20°C in preparation for later harvesting with a Tomtec harvester onto filter papers (Cox Scientific, Kettering, UK). Levels of incorporated radioactivity were assessed from the dried filter papers, sealed in sample bags (Wallac, Milton Keynes, UK) with 3ml scintillation fluid, ^3H-TdR incorporation was measured on a 1450 MicroBeta liquid scintillation counter (Wallac).

The test system of data set [5] is serum IL-2. Nature of the data set: Serum IL-2 after a single SC dose of peptide. The class given is in vivo, mouse (Tg4). The settings on record: Tg4 mice, single SC dose 80µg. The procedure:
as §1, §2, §3

Data set [6] relates to splenic CD11c+ DC. Nature of the data set: In vivo APC targeting after SC peptide: ex vivo presentation to naive Tg4 CD4+ T cells. More on the design: species or system mouse (B10.PL). The note with it: 80µg SC, proliferation of Tg4 CD4+ T cells in vitro. An excerpt: CD11c^+ cells were isolated from whole splenocytes in MACS buffer using the CD11c microbead positive selection kit (Miltenyi Biotec, Surrey, UK) as per the manufacturer’s instructions. Single cell suspensions were used for magnetic selection using the EasySep Mouse B Cell Isolation kit or EasySep Mouse Monocyte Enrichment kit (both Stemcell Technologies, Grenoble, France) as per the manufacturer’s instructions. In the B10.PL APC targeting experiments, single cell suspensions (without digestion) of Tg4 splenocytes were counted and T cells isolated using Magnisort® Mouse CD4 T cell isolation kit (affymetrix, eBioscience, Hatfield, UK) as per the manufacturer’s instructions. Cells were either enriched by magnetic sorting prior to fluorescence-activated cell sorting (FACS) or sorted from splenocytes. […] Peptide bound to APC was detected in vitro by activation of naïve Tg4 cells, as evidenced through ^3H.thymidine incorporation. […] Peptide bound to APC was detected in vitro by activation of CD4^+ T cells from the lymph nodes and spleen of HLA-DR3 transgenic mice immunized with the 5D peptide in CFA. T cell activation was detected by interferon gamma secretion over 3 days.
Proliferation was assessed by tritiated thymidine (^3H-TdR) incorporation with either whole splenocytes or isolated APC populations and antigen-specific Tg4 responder CD4^+ T cells. […]

The subject of data set [7] is CD4 cells. In words: Intracellular cytokine staining of spleen cells for IL-10 after dose escalation. The settings on record: Tg4 mice, after the final 80 µg dose of dose escalation. The class given is in vivo, mouse (Tg4). The procedure: as §1
Intracellular cytokine staining of splenocytes was performed after a 3-h stimulation with phorbol 12-myristate 13-acetate (5ng/ml) and ionomycin (500ng/ml) (both Sigma-Aldrich) with GolgiStop (BD Biosciences). Cells were stained with Vβ8-FITC (clone KJ16-133, diluted 1:100) or with fixable viability dye eFluor780 (1:1,000) before surface staining with CD4-Alexa700 (GK1.5, 1:100) and fixation using IC fixation buffer (all from eBioscience). Antibodies for intracellular cytokine staining were diluted in permeabilization buffer; IL-10-allophycocyanin (APC) (JES5-16E3, 1:200), IFN-γ-PerCP-Cy5.5 (XMG1.2, 1:200) (both from eBioscience). Data were collected using an LSR II flow cytometer (BD Biosciences) and analyzed using FlowJo software (Treestar).

Take “861-874: insoluble peptide epitope from the red blood cell band 3 protein (FVLILTVPLRRVLL; UniProt P02730 861-874, looked up, fragment) [Peptide 861-874]”: the “Effect of intranasal administration in NZB mice” value in data set [1] (intranasal, no adjuvant) is reported as “promote autoimmunity”. Also, the “Solubility of band 3 peptide” value in data set [1] (mouse, in vivo) was “insoluble”.

Consider Ac-ASQYRPSLFLFLF-NH2 [Peptide 4Y-3LF], for which the “Ex vivo proliferation of lymph node cells or splenocytes stimulated with the Ac1-9 peptide” value in data set [2] is reported as “partially suppressed”. Further, in data set [3], the “IL-10 detectable in serum” value is reported as “No IL-10 was detectable”. Also, the “Antigenicity: proliferation of Tg4 splenocytes in vitro” value in data set [4] is “significantly weaker”. In addition, in data set [5], the “Time of peak serum IL-2 after SC injection” value stood at 8 h. The “Presentation by splenic CD11c+ DC collected 2h after SC administration” value in data set [6] is given as “barely detectable”. For the same substance, in data set [7], the “CD4 cells producing IL-10 (intracellular cytokine staining of spleen cells)” value was “close to background levels”.
